# Assay results reported in ChEMBL document CHEMBL5154668, “Modulating physicochemical properties of tetrahydropyridine-2-amine BACE1 inhibitors with electron-withdrawing groups: A systematic study” (Eur J Med Chem, 2022).
# How the values were obtained:
# Beta-secretase 1 = Beta-secretase 1 (Homo sapiens, UniProt P56817); assay: Inhibition of BACE1 (unknown origin)
# [1] = Inhibition of calcium channel (unknown origin); design: species or system Homo sapiens
# [2] = Inhibition of sodium channel (unknown origin); design: species or system Homo sapiens
# [3] = Dissociation constant, pKa of the compound by potentiometric titration method; assay type: physicochemical
# [4] = molecular target: Voltage-gated inwardly rectifying potassium channel KCNH2 (Homo sapiens, UniProt Q12809); assay: Inhibition of hERG; assay type: toxicity
# [5] = Efflux ratio of apparent permeability in MDCK-MDR1 cells; assay type: ADME, cell-based, Canis lupus familiaris; settings: dog
# [6] = Apparent permeability in MDCK-MDR1 cells; assay type: ADME, cell-based, Canis lupus familiaris; settings: dog
# Sequence of Beta-secretase 1 (P56817 whole entry): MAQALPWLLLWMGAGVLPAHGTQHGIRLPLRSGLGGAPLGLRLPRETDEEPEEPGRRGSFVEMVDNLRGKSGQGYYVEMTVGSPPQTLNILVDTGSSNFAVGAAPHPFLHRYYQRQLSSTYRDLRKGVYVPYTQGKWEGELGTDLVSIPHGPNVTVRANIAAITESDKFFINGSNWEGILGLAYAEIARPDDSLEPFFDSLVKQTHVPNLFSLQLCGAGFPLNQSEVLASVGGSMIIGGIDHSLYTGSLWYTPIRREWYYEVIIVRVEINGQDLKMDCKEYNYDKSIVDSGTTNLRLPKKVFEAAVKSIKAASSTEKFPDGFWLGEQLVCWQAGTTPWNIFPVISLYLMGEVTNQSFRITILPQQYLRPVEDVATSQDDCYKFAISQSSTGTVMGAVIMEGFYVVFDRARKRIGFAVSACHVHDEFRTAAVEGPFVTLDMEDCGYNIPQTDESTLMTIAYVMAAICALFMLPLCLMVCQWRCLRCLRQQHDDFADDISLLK
# Sequence of Voltage-gated inwardly rectifying potassium channel KCNH2 (Q12809 whole entry): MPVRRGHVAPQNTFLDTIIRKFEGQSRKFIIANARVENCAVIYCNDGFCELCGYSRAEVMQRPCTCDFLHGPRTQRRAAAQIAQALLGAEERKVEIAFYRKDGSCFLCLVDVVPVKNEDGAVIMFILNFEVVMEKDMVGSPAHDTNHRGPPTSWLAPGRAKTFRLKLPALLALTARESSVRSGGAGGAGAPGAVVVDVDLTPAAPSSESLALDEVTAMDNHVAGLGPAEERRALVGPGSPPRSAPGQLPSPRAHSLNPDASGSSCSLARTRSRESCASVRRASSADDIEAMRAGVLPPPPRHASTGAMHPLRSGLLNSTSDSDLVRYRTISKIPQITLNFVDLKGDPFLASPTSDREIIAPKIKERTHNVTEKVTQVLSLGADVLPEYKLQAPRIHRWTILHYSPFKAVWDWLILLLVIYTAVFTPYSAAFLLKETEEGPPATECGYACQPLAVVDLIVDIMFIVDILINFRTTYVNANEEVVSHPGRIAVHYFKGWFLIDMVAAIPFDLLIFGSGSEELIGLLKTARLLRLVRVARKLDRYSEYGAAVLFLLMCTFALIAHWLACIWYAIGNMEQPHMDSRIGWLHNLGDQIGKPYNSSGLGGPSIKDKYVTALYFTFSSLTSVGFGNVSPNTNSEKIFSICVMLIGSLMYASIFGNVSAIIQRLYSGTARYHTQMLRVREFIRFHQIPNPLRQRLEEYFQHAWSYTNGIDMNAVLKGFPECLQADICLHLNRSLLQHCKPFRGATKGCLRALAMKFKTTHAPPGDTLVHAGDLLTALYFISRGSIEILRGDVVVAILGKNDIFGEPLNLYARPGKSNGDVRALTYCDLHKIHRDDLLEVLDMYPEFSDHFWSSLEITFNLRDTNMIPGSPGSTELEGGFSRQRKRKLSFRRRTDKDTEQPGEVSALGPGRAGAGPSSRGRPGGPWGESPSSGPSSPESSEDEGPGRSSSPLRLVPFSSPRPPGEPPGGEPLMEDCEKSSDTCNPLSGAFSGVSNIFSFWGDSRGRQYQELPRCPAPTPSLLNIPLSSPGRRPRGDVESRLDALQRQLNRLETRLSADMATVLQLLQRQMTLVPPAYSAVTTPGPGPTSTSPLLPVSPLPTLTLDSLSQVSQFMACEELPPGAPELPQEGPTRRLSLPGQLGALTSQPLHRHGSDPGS
smiles,measurement,setting,value
COc1cnc(-c2ccc(F)c([C@]3(C)CC[C@@](C)(C#N)C(N)=N3)c2)cn1,IC50,Beta-secretase 1,9.8 nM
same,IC50,[1],6610 nM
same,IC50,[2],4900 nM
C[C@@]1(c2cc(-c3cc4c(cn3)OC(F)(F)O4)ccc2F)CC[C@@](C)(S(=O)(=O)C(F)(F)F)C(N)=N1,IC50,Beta-secretase 1,5.9 nM
same,IC50,[1],< 100 nM
same,IC50,[2],170 nM
same,pKa,[3],7.4
same,IC50,[4],> 10000 nM
CN(C)C(=O)[C@]1(C)CC[C@@](CF)(c2cc(-c3ccc(F)cn3)ccc2F)N=C1N,IC50,Beta-secretase 1,66 nM
same,IC50,[1],> 10000 nM
same,efflux ratio,[5],52
same,IC50,[2],> 10000 nM
same,Papp,[6],2.7 ×10⁻⁶ cm/s
same,pKa,[3],9.2
same,IC50,[4],8320 nM
COc1cnc(-c2ccc(F)c([C@]3(CF)CC[C@@](C)(C#N)C(N)=N3)c2)cn1,IC50,Beta-secretase 1,54 nM
same,IC50,[1],> 10000 nM
same,IC50,[2],> 10000 nM
C[C@@]1(c2cc(-c3ccc(Cl)cn3)ccc2F)C[C@@H]2C[C@@H]2C(N)=N1,IC50,Beta-secretase 1,96 nM
same,pKa,[3],> 11
CN(C)S(=O)(=O)[C@]1(C)CC[C@@](CF)(c2cc(-c3ccc(F)cn3)ccc2F)N=C1N,IC50,Beta-secretase 1,4 nM
same,IC50,[1],> 10000 nM
same,IC50,[2],2140 nM
COc1cnc(-c2ccc(F)c([C@]3(C(F)F)CC[C@@](C)(C#N)C(N)=N3)c2)cn1,IC50,Beta-secretase 1,12 nM
same,IC50,[1],> 10000 nM
same,efflux ratio,[5],15
same,IC50,[2],> 10000 nM
same,Papp,[6],54 ×10⁻⁶ cm/s
same,pKa,[3],6
same,IC50,[4],> 10000 nM
CC1CC[C@@](CF)(c2cc(-c3cc4c(cn3)OC(F)(F)O4)ccc2F)N=C1N (stereo not given in full),IC50,Beta-secretase 1,59 nM
same,IC50,[1],1950 nM
same,IC50,[2],650 nM
C[C@@]1(c2nc(-c3ccc(F)cn3)cs2)CC[C@@](C)(S(C)(=O)=O)C(N)=N1,IC50,Beta-secretase 1,25 nM
same,efflux ratio,[5],22
same,Papp,[6],37 ×10⁻⁶ cm/s
same,pKa,[3],7
C[C@@]1(c2cc(-c3cnc(OCF)cn3)ccc2F)CCC(F)(F)C(N)=N1,IC50,Beta-secretase 1,12 nM
same,IC50,[1],> 10000 nM
same,IC50,[2],> 10000 nM
C[C@@]1(c2cc(NC(=O)c3ccc(F)cn3)ccc2F)CC[C@@](CF)(S(C)(=O)=O)C(N)=N1,IC50,Beta-secretase 1,15 nM
same,IC50,[1],> 10000 nM
same,IC50,[2],6460 nM
COc1cnc(C(=O)Nc2ccc(F)c([C@@]3(C)N=C(N)[C@](C)(S(C)(=O)=O)C[C@@H]3F)c2)cn1,IC50,[1],> 10000 nM
same,IC50,[2],> 10000 nM
C[C@@]1(c2cc(-c3ccc(Cl)cn3)ccc2F)CCC2(CC2)C(N)=N1,IC50,Beta-secretase 1,31 nM
same,pKa,[3],> 11
COc1cnc(-c2ccc(F)c([C@]3(CF)CC[C@](C)(C#N)C(N)=N3)c2)cn1,IC50,Beta-secretase 1,851 nM
same,IC50,[1],> 10000 nM
same,IC50,[2],> 10000 nM
NC1=N[C@](CF)(c2cc(-c3cnc(OCF)cn3)ccc2F)CCC1(F)F,IC50,Beta-secretase 1,8.9 nM
same,IC50,[1],> 10000 nM
same,IC50,[2],> 10000 nM
C[C@@]1(S(C)(=O)=O)CC[C@@](CF)(c2nc(-c3cnc(OCF)cn3)ccc2F)N=C1N,IC50,Beta-secretase 1,38 nM
same,pKa,[3],7.6
C[C@@]1(S(C)(=O)=O)CC[C@@](CF)(c2cc(NC(=O)c3cnc(OCF)cn3)ccc2F)N=C1N,IC50,[1],> 10000 nM
same,IC50,[2],8510 nM
COc1cnc(-c2ccc(F)c([C@]3(C)CC[C@@](C)(S(C)(=O)=O)C(N)=N3)c2)cn1,IC50,Beta-secretase 1,4 nM
same,IC50,[1],> 10000 nM
same,IC50,[2],8710 nM
